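Results reflect a 48-hour exposure of cells in 96-well plates to compound at five concentrations. GI50 marks 50% less growth. TGI is the concentration that stops growth completely.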
Tests used:
Test in all cases: DTP human tumour cell line panel, 48 h; in the data active means GI50 below about 0.43 µM; inactive means the rest
PC-3 prostate = system: PC-3 prostate
HT29 colon = system: HT29 colon
CCRF-CEM leukemia = system: CCRF-CEM leukemia
SK-MEL-5 melanoma = system: SK-MEL-5 melanoma
SNB-75 CNS = system: SNB-75 CNS
SW-620 colon = system: SW-620 colon
U251 CNS = system: U251 CNS
SR leukemia = system: SR leukemia
K-562 leukemia = system: K-562 leukemia
LOX IMVI melanoma = system: LOX IMVI melanoma

Cc1cc(Cl)cc2c(N=Nc3ccc(S(N)(=O)=O)cc3)c(O)[nH]c12
> 25 µM: TGI (PC-3 prostate) | TGI (HT29 colon) | TGI (CCRF-CEM leukemia) | TGI (SK-MEL-5 melanoma) | TGI (SNB-75 CNS) | TGI (SW-620 colon) | TGI (U251 CNS) | TGI (SR leukemia) | TGI (K-562 leukemia) | TGI (LOX IMVI melanoma)
inactive: GI50 (PC-3 prostate) > 25 µM | GI50 (HT29 colon) > 25 µM | GI50 (CCRF-CEM leukemia) > 25 µM | GI50 (SK-MEL-5 melanoma) > 25 µM | GI50 (SNB-75 CNS) > 15.6 µM | GI50 (SW-620 colon) > 25 µM | GI50 (U251 CNS) > 25 µM | GI50 (SR leukemia) > 25 µM | GI50 (K-562 leukemia) > 25 µM | GI50 (LOX IMVI melanoma) > 25 µM

CSC1=Nc2c(c(C)c(-c3ccccc3)n2CCCN2CCCCC2)C2=NC(=O)C[C@H](C)N12
32 µM: TGI (SNB-75 CNS)
inactive: GI50 (PC-3 prostate) 2.01 µM | GI50 (HT29 colon) 2.38 µM | GI50 (CCRF-CEM leukemia) 2.68 µM | GI50 (SK-MEL-5 melanoma) 1.99 µM | GI50 (SNB-75 CNS) 4.98 µM | GI50 (SW-620 colon) 2.99 µM | GI50 (U251 CNS) 2.71 µM | GI50 (SR leukemia) 16.7 µM | GI50 (K-562 leukemia) 5.08 µM | GI50 (LOX IMVI melanoma) 3.16 µM
87.6 µM: TGI (K-562 leukemia)
10.2 µM: TGI (CCRF-CEM leukemia)
> 100 µM: TGI (SR leukemia)
17.7 µM: TGI (U251 CNS)
4.64 µM: TGI (SK-MEL-5 melanoma)
18.2 µM: TGI (SW-620 colon)
13.4 µM: TGI (LOX IMVI melanoma)
10.1 µM: TGI (PC-3 prostate)
10.9 µM: TGI (HT29 colon)

COc1cc2nccc(Oc3ccc(NC(=O)NC4CC4)c(Cl)c3)c2cc1C(N)=O
inactive: GI50 (PC-3 prostate) 42.5 µM | GI50 (HT29 colon) > 100 µM | GI50 (CCRF-CEM leukemia) 62.6 µM | GI50 (SK-MEL-5 melanoma) 40 µM | GI50 (SNB-75 CNS) 2.82 µM | GI50 (SW-620 colon) 97.5 µM | GI50 (U251 CNS) 11.5 µM | GI50 (SR leukemia) 30.5 µM | GI50 (K-562 leukemia) 3.63 µM | GI50 (LOX IMVI melanoma) 70.2 µM
> 100 µM: TGI (PC-3 prostate) | TGI (HT29 colon) | TGI (CCRF-CEM leukemia) | TGI (SK-MEL-5 melanoma) | TGI (SW-620 colon) | TGI (SR leukemia) | TGI (K-562 leukemia) | TGI (LOX IMVI melanoma)
42.8 µM: TGI (U251 CNS)
36.8 µM: TGI (SNB-75 CNS)

NS(=O)(=O)OCC1OC(n2cnc3cncnc32)C(O)C1O (centres undefined)
0.4 µM: TGI (SNB-75 CNS)
0.0548 µM: TGI (LOX IMVI melanoma)
> 21.1 µM: TGI (CCRF-CEM leukemia)
1.22 µM: TGI (K-562 leukemia)
21.6 µM: TGI (SR leukemia)
0.0749 µM: TGI (U251 CNS)
0.237 µM: TGI (PC-3 prostate)
0.155 µM: TGI (SW-620 colon)
0.144 µM: TGI (SK-MEL-5 melanoma)
active: GI50 (PC-3 prostate) 0.0312 µM | GI50 (HT29 colon) 0.0275 µM | GI50 (CCRF-CEM leukemia) 0.0389 µM | GI50 (SK-MEL-5 melanoma) 0.0402 µM | GI50 (SNB-75 CNS) 0.0309 µM | GI50 (SW-620 colon) 0.0167 µM | GI50 (U251 CNS) 0.022 µM | GI50 (SR leukemia) 0.0153 µM | GI50 (K-562 leukemia) 0.0333 µM | GI50 (LOX IMVI melanoma) 0.0228 µM
0.105 µM: TGI (HT29 colon)

CN1CCC(COc2cnc(-c3cccc(Cn4nc(-c5cccc(C#N)c5)ccc4=O)c3)nc2)CC1
5.28 µM: TGI (SNB-75 CNS)
31.8 µM: TGI (PC-3 prostate)
7.68 µM: TGI (U251 CNS)
4.32 µM: TGI (K-562 leukemia)
4.49 µM: TGI (SR leukemia)
inactive: GI50 (PC-3 prostate) 6.7 µM | GI50 (HT29 colon) 2.04 µM | GI50 (CCRF-CEM leukemia) 2.56 µM | GI50 (SK-MEL-5 melanoma) 1.49 µM | GI50 (SNB-75 CNS) 1.81 µM | GI50 (SW-620 colon) 3.55 µM | GI50 (U251 CNS) 2.43 µM | GI50 (SR leukemia) 2.08 µM | GI50 (K-562 leukemia) 1.74 µM | GI50 (LOX IMVI melanoma) 1.93 µM
2.85 µM: TGI (SK-MEL-5 melanoma)
31.3 µM: TGI (SW-620 colon)
4.66 µM: TGI (HT29 colon)
19.6 µM: TGI (CCRF-CEM leukemia)
4.09 µM: TGI (LOX IMVI melanoma)

Nc1c(C(=O)c2ccc(-c3cccnc3)cc2)cnn1-c1ccc(F)cc1
inactive: GI50 (PC-3 prostate) > 25 µM | GI50 (HT29 colon) > 21.6 µM | GI50 (SK-MEL-5 melanoma) > 15.2 µM | GI50 (SNB-75 CNS) 11.3 µM | GI50 (SW-620 colon) > 22.4 µM | GI50 (U251 CNS) > 15.2 µM | GI50 (SR leukemia) > 25 µM | GI50 (K-562 leukemia) > 25 µM | GI50 (LOX IMVI melanoma) > 25 µM
> 25 µM: TGI (PC-3 prostate) | TGI (HT29 colon) | TGI (CCRF-CEM leukemia) | TGI (SK-MEL-5 melanoma) | TGI (SNB-75 CNS) | TGI (SW-620 colon) | TGI (U251 CNS) | TGI (SR leukemia) | TGI (K-562 leukemia) | TGI (LOX IMVI melanoma)

Cc1cccc(-c2[nH]ncc2-c2ccc3ncccc3n2)n1
> 25 µM: TGI (PC-3 prostate) | TGI (HT29 colon) | TGI (CCRF-CEM leukemia) | TGI (SW-620 colon) | TGI (U251 CNS) | TGI (SR leukemia) | TGI (K-562 leukemia) | TGI (LOX IMVI melanoma)
inactive: GI50 (PC-3 prostate) > 17.3 µM | GI50 (HT29 colon) 12.1 µM | GI50 (CCRF-CEM leukemia) 12.4 µM | GI50 (SK-MEL-5 melanoma) 9.63 µM | GI50 (SNB-75 CNS) 5.74 µM | GI50 (SW-620 colon) 9.88 µM | GI50 (U251 CNS) 9.54 µM | GI50 (SR leukemia) 9.2 µM | GI50 (K-562 leukemia) > 25 µM | GI50 (LOX IMVI melanoma) 7.56 µM
> 18.5 µM: TGI (SK-MEL-5 melanoma)
> 23.9 µM: TGI (SNB-75 CNS)

C=CCC(N[C@@H](CO)c1ccccc1)c1cn(Cc2ccccc2Cl)c(=O)n(Cc2ccccc2Cl)c1=O (some centres undefined)
> 100 µM: TGI (PC-3 prostate) | TGI (HT29 colon) | TGI (CCRF-CEM leukemia) | TGI (SK-MEL-5 melanoma) | TGI (SNB-75 CNS) | TGI (SW-620 colon) | TGI (U251 CNS) | TGI (SR leukemia) | TGI (K-562 leukemia) | TGI (LOX IMVI melanoma)
inactive: GI50 (PC-3 prostate) 83.9 µM | GI50 (HT29 colon) > 100 µM | GI50 (CCRF-CEM leukemia) > 100 µM | GI50 (SK-MEL-5 melanoma) > 100 µM | GI50 (SNB-75 CNS) 79.3 µM | GI50 (SW-620 colon) > 100 µM | GI50 (U251 CNS) > 100 µM | GI50 (SR leukemia) > 100 µM | GI50 (K-562 leukemia) > 100 µM | GI50 (LOX IMVI melanoma) > 100 µM

NC1=CC(=O)c2cccnc2C1=O
2.69 µM: TGI (LOX IMVI melanoma)
2.95 µM: TGI (SK-MEL-5 melanoma)
3.57 µM: TGI (SW-620 colon)
14.6 µM: TGI (HT29 colon)
7.55 µM: TGI (PC-3 prostate)
4.88 µM: TGI (CCRF-CEM leukemia)
inactive: GI50 (PC-3 prostate) 2.22 µM | GI50 (HT29 colon) 3.48 µM | GI50 (CCRF-CEM leukemia) 1.19 µM | GI50 (SK-MEL-5 melanoma) 1.58 µM | GI50 (SNB-75 CNS) 1.21 µM | GI50 (SW-620 colon) 1.56 µM | GI50 (U251 CNS) 1.46 µM | GI50 (SR leukemia) 0.729 µM | GI50 (LOX IMVI melanoma) 0.981 µM
2.83 µM: TGI (U251 CNS)
2.58 µM: TGI (SNB-75 CNS)
3.69 µM: TGI (SR leukemia)

CC(C)N1CC2CN(Cc3ccccc3)CC(C1)C2=O
> 100 µM: TGI (PC-3 prostate) | TGI (HT29 colon) | TGI (CCRF-CEM leukemia) | TGI (SNB-75 CNS) | TGI (SW-620 colon) | TGI (U251 CNS) | TGI (SR leukemia) | TGI (K-562 leukemia) | TGI (LOX IMVI melanoma)

O=C1/C(=C\c2ccc(F)cc2)CN(C(=O)c2ccccc2)C/C1=C\c1ccc(F)cc1
inactive: GI50 (PC-3 prostate) 2.08 µM | GI50 (HT29 colon) 1.67 µM | GI50 (CCRF-CEM leukemia) 1.05 µM | GI50 (SK-MEL-5 melanoma) 1.66 µM | GI50 (SNB-75 CNS) 3.57 µM | GI50 (U251 CNS) 1.65 µM | GI50 (SR leukemia) 0.484 µM | GI50 (K-562 leukemia) 0.983 µM | GI50 (LOX IMVI melanoma) 1.41 µM
> 100 µM: TGI (CCRF-CEM leukemia) | TGI (K-562 leukemia)
42.6 µM: TGI (SNB-75 CNS)
26.8 µM: TGI (SR leukemia)
3.76 µM: TGI (U251 CNS)
6.59 µM: TGI (PC-3 prostate)
3.8 µM: TGI (SK-MEL-5 melanoma)
3.18 µM: TGI (LOX IMVI melanoma)
4.34 µM: TGI (HT29 colon)
